Each compound was assayed against B-cell lymphoma 6 protein (Homo sapiens, UniProt P41182) (assay: BCL6 TR-FRET Protocol).
Procedure: Assay buffer A: 50 mM HEPES pH 7.5, 125 mM NaCl, 0.01% TritonX.Assay buffer B (made fresh): buffer A+1 mM Glutathione (or 0.5 mM DTT).Assay buffer C (made fresh): buffer B+0.03% BSA.Black Proxy plates, 96 well.15 μl final reaction volumes (BCoR-Cy5 100 nM, SA-Eu 2 nM, BCL6-avitag 2 nM).134 μM BCL6-Avitag-Biotin stock: made fresh by adding 2 μl of BCL6-Avitag-Biotin to 31.5 ml Buffer C.1 mM BCoR-Cy5 peptide (LifeTein) stock in Dimethylformamide (DMF).300 nM BCoR-Cy5 working stock: made fresh by adding 4.5 μl of the 1 mM BCoR-Cy5 peptide stock to 15 ml Buffer B.10 μM Eu-Streptavidin (Lance Eu-W1024 Streptavidin, PerkinElmer) stock solution.6 nM Eu-Streptavidin working stock: made fresh by adding 9 μl Eu-Streptavidin stock solution to 15 ml Buffer A.Compounds were diluted to 10 mM. Twenty microliters of DMSO was aliquoted to each well of the microtiter plates. From the 10 mM compound stock, 8.7 ul was aliquoted to the 20 ul DMSO and 3-fold serial dilutions (12 pt […] tritration plate, 96 well, 100% DMSO) performed. Five ul from the titration plate wells was aliquoted to 45 ul Buff C (Intermediate dilution plates, 10% DMSO).Spot 1.5 μl compound titrations to 384-well plates in duplicate, and spot 3.5 μl [8.5 nM] BCL6-bio protein to each well. The plate was mix briefly, centrifuged, and incubated for 30 minutes at room temperature.Mix 14 mls of BCoR-Cy5 [300 nM] and 14 mls [6 nM] Eu-Streptavidin. Spot 10 μl BCoR-Cy5/SA-Eu (1:1) mix to each well. The plates were incubated for 2 hours and then read on an Envision plate reader.
In the case of `CCC(C1CCN(c2ccc3c(c2)C(=O)N(C2CCC(=O)NC2=O)C3=O)CC1)N1CCN(c2ncc(Cl)c(Nc3ccc4c(c3)cc(OCC(=O)NC)c(=O)n4C)n2)CC1` (configuration not stated) [US12310975, Example 337], the IC50 is reported as < 10 nM. With `CNC(=O)COc1cc2cc(Nc3nc(N4CCC(CN5CCC6(CC5)CN(c5cccc(C(=O)NC7CCC(=O)NC7=O)c5F)C6)CC4)ncc3Cl)ccc2n(C(C)C)c1=O` (configuration not stated) [US12310975, Example 419] the IC50 was < 10 nM. For `CNC(=O)COc1cc2cc(Nc3cc(N4CCN(C(C)(C)C5CCN(c6ccc7c(c6)C(=O)N(C6CCC(=O)NC6=O)C7=O)CC5)CC4)ncc3Cl)ccc2n(C)c1=O` (configuration not stated) [US12310975, Example 261], the IC50 was > 100 nM. For `CNC(=O)COc1cc2cc(Nc3nc(N4CCC(C5(N6CCC(c7ccc8c(c7)C(=O)N(C7CCC(=O)NC7=O)C8=O)CC6)CC5)CC4)ncc3Cl)ccc2n(C)c1=O` (configuration not stated) [US12310975, Example 482], the IC50 was < 10 nM. With `CNC(=O)COc1cc2cc(Nc3cc(N4CCN(CC5CCN(c6ccc7c(c6)C(=O)N(C6CCC(=O)NC6=O)C7=O)CC5)CC4)ncc3Cl)ccc2n(C)c1=O` (configuration not stated) [US12310975, Example 253] the IC50 was < 10 nM. In the case of `CNC(=O)COc1cc2cc(Nc3nc(N4CC5(CCN(CC6CCN(c7cccc8c7C(=O)N(C7CCC(=O)NC7=O)C8=O)CC6)CC5)C4)ncc3Cl)ccc2n(C(C)C)c1=O` (configuration not stated) [US12310975, Example 426], the IC50 is reported as < 10 nM. `CNC(=O)COc1cc2cc(Nc3nc(N4CCN(CC5CCN(c6cc(OC)cc7c6C(=O)N(C6CCC(=O)NC6=O)C7=O)CC5)CC4)ncc3Cl)ccc2n(C(C)C)c1=O` (configuration not stated) [US12310975, Example 414] was tested, and the IC50 was < 10 nM. `CNC(=O)COc1cc2cc(Nc3nc(N4CCC(OC5CC6(CCN(c7cccc(C(=O)NC8CCC(=O)NC8=O)c7F)CC6)C5)CC4)ncc3Cl)ccc2n(C(C)C)c1=O` (configuration not stated) [US12310975, Example 433] was tested, and the IC50 was > 100 nM. With `CNC(=O)COc1cc2cc(Nc3nc(N4CCN(C(C)(C)C5CCN(c6ccc(OC)c(C(=O)NC7CCC(=O)NC7=O)c6F)CC5)CC4)ncc3Cl)ccc2n(C)c1=O` (configuration not stated) [US12310975, Example 468] the IC50 was < 10 nM. For `Cn1c(=O)c(OC2COC2)cc2cc(Nc3nc(N4CCC(CN5CCN(c6ccc7c(c6)C(=O)N(C6CCC(=O)NC6=O)C7=O)CC5)CC4)ncc3Cl)ccc21` (configuration not stated) [US12310975, Example 223], the IC50 was > 100 nM. For `CNC(=O)COc1cc2cc(Nc3nc(N4CCC(OC5CC6(CCN(c7cccc(C(=O)NC8CCC(=O)NC8=O)c7OC)CC6)C5)CC4)ncc3Cl)ccc2n(C(C)C)c1=O` (configuration not stated) [US12310975, Example 449], the IC50 was > 100 nM. For `CNC(=O)COc1cc2cc(Nc3nc(N4CCC(CN5CCCN(c6cccc(N7CCC(=O)NC7=O)c6)CC5)CC4)ncc3Cl)ccc2n(C(C)C)c1=O` [US12310975, Example 498], the IC50 was > 100 nM.

From BindingDB's records for patent US12310975 (Arvinas Operations, 2025)
